Common to all, as to experiment: NCI-60 cell line screen, 48 h
Assay [1] concerns SK-MEL-2 melanoma.
The subject of assay [2] is TK-10 renal.
Assay [3] relates to OVCAR-5 ovarian.
Assay [4] has as its system CCRF-CEM leukemia.
For assay [5], the system named is HT29 colon.
The subject of assay [6] is SF-268 CNS.
The subject of assay [7] is M14 melanoma.
For assay [8], the system named is K-562 leukemia.
Assay [9] has as its system HOP-62 NSCLC.
The subject of assay [10] is NCI-H460 lung.
The test system of assay [11] is NCI-H23 lung.

Several values for one entry are separate records, joined by “and”; a condition that tells them apart may be missing. Equal values may be shown once.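 Where inhibition never reached the appropriate level, the endpoint shown equals the highest concentration tested. Otherwise, values were interpolated linearly from a five-concentration, 48-hour dose response in 96-well plates. GI50: concentration for 50% inhibition of growth. Definition used: TGI = concentration required for complete inhibition of growth.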

Consider `COc1cc([C@@H]2c3cc4c(c(O)c3C[C@H]3COC(=O)[C@@H]32)OCO4)cc(OC)c1OC`, for which the GI50 in [1] is 1.02 µM; in [2] it was 0.505 µM; in assay [3] it was 0.725 µM; in assay [4] it was 0.374 µM; in assay [5], 1.18 µM; in [6] it was 0.501 µM. Also, the GI50 in [8] was 0.141 µM; in [9], 0.249 µM; in assay [10], 0.0564 µM. Besides, the TGI is 37.5 µM and 167 µM and > 100 µM in assay [2]; 150 µM and > 241 µM and > 100 µM in [3]; 94.3 µM and > 241 µM and > 100 µM in assay [4]; greater than 122 µM in assay [7]; 57.9 µM and 218 µM and > 100 µM in assay [9].

Consider `Cc1nc2c(c(=O)[nH]1)S/C(=C(/C#N)c1nc3ccccc3[nH]1)N2c1ccccc1`, for which the TGI in [1], in [2], in assay [3], in assay [4], in assay [5] and in assay [6] was greater than 100 µM in each case. In addition, the TGI in assay [11], in [7], in [8], in assay [9] and in assay [10] was greater than 100 µM throughout.

Regarding `COc1ccc2c(c1O)-c1cc(O)cc3c1[C@@H](C2)N(C)CC3`, the TGI in [1] is 43.4 µM; in [3] it was 63.3 µM; in assay [4], 262 µM; in [5], 223 µM; in assay [6] it was 229 µM; in assay [11], 257 µM. Besides, the TGI in assay [8] was determined as 241 µM; in assay [9] it was 106 µM; in assay [10] it was 150 µM.

On to `O=C1C(Cl)N(c2cccc(Cl)c2)C1c1c[nH]c2ccccc12` (stereo unspecified), for which the TGI in assay [1], in assay [2], in assay [4], in assay [5], in assay [6] and in assay [11] was greater than 100 µM in each case. Besides, the TGI in assay [7], in [8], in assay [9] and in [10] was greater than 100 µM throughout.

Turning to `Nc1ccccc1Nc1ccccc1C(=O)[O-].Nc1ccccc1Nc1ccccc1C(=O)[O-].[Zn+2]`, the TGI in assay [1] was 43.2 µM; in assay [2], greater than 100 µM; in [3] it was greater than 100 µM; in assay [4], greater than 100 µM; in [5] it was greater than 100 µM; in assay [6], greater than 100 µM. Besides, the TGI in assay [11], in assay [7], in [8], in assay [9] and in assay [10] was greater than 100 µM throughout.

Take `Cc1cc(O)c2c(c1O)C(=O)c1cccc(O)c1C2=O`: the TGI in assay [1], in assay [2], in assay [3], in [4], in [5] and in assay [6] was greater than 100 µM throughout. For the same molecule, the TGI in [11], in assay [7], in [8], in [9] and in [10] was greater than 100 µM throughout.

Consider `C(/C=C/c1ccccc1)=Nc1ccc2c(c1)Cc1ccccc1-2`, for which the TGI in [1], in assay [2], in assay [3], in assay [4], in assay [5] and in [6] was greater than 100 µM in each case. Moreover, the TGI in assay [11], in assay [7], in assay [8], in assay [9] and in assay [10] was greater than 100 µM throughout.

With `COc1cc(C2S/C(=C/c3ccccc3)C(=O)N2c2ccc(NC(C)=O)cc2)cc(OC)c1OC` (stereo unspecified), the TGI in assay [1] is 20.3 µM; in assay [2] it was greater than 100 µM; in assay [3], 96.2 µM; in assay [4], 20.4 µM; in [5], 32 µM; in assay [6], 83.3 µM. Besides, the TGI in assay [11] was 66.8 µM; in [7], 56.9 µM; in assay [8], greater than 100 µM; in [9] it was greater than 100 µM.

Regarding `NC(CSCc1ccc(I)cc1)C(=O)O` (stereo unspecified), the TGI in assay [1], in [2], in assay [3], in assay [4], in assay [5] and in assay [6] was greater than 100 µM each time. Moreover, the TGI in assay [11], in [7], in assay [8], in assay [9] and in [10] was greater than 100 µM each time.

For the molecule `CC[C@@H]1ON(C)[C@H]2CN(C)C(=O)[C@@H]12`, the TGI in [1], in [2], in [3], in assay [4], in [5] and in assay [11] was greater than 100 µM throughout. The TGI in assay [7], in assay [8], in assay [9] and in assay [10] was greater than 100 µM throughout.

As to `Cc1c(C)c(C)c(CC2(C)CSC2)c(CC2(C)CSC2)c1C`, the TGI in assay [1], in assay [2], in assay [3], in [4], in [5] and in [6] was greater than 100 µM throughout. Besides, the TGI in assay [7], in assay [8], in [9] and in [10] was greater than 100 µM each time.

Regarding `COc1ccc(-c2csc(=Nc3ccccc3)n2CCCN(C)C)cc1`, the TGI is 37.7 µM in assay [1]; 29.8 µM in assay [2]; 30.4 µM in [3]; greater than 100 µM in [4]; 56.4 µM in [6]; 48.5 µM in assay [11]. Besides, the TGI in assay [7] was 24.4 µM; in assay [9], 28.3 µM; in assay [10], 78.4 µM.

For the molecule `NC(=S)N/N=C/c1nccc2ccccc12`, the TGI in assay [1] is greater than 100 µM; in assay [2], greater than 100 µM; in [3] it was greater than 100 µM; in assay [5], greater than 100 µM; in assay [6] it was 4.04 µM; in [11] it was 6.42 µM. The figures for the TGI in [8], in assay [9] and in assay [10] were greater than 100 µM, greater than 100 µM and 4.94 µM, respectively.

As for `CCN1CCCC(C#N)(c2ccccc2)CC1` (stereo unspecified), the TGI in assay [2], in assay [3], in [5], in [6], in assay [11] and in [7] was greater than 100 µM each time. Besides, the TGI in assay [8], in [9] and in assay [10] was greater than 100 µM throughout.

Regarding `CN(C)CCCC1c2ccccc2Oc2ccc(C(F)(F)F)cc21` (stereo unspecified), the TGI in [1] amounted to 28.5 µM; in [2], 29.3 µM; in assay [3] it was 29.2 µM; in assay [4] it was 31.5 µM; in assay [5], 18.9 µM; in [6] it was 28.5 µM. Moreover, the TGI amounted to 36.6 µM in [11]; 14.2 µM in assay [7]; 18.3 µM in assay [8]; 31 µM in assay [9]; 31.8 µM in assay [10].

The values above are taken from PubChem BioAssay (NCI).
